Test results reported in patent publication US9326539B2, “Compositions comprising dietary fat complexers and methods for their use” (Soho Flordis International Pty. Ltd., priority 2002, dated 2016).

Assay: in vitro study of vegetable oil, water and cyclodextrin: band of wax-like complex
Type: physicochemical
Details: vegetable oil 4 g, water 6 g, varying amounts of cyclodextrin (100-2,000 mg), centrifuged
Procedure: FIG. 9A-9C depicts the results of an in vitro study of vegetable oil (4 g), water (6 g) (with added food coloring for contrast) and varying amounts of (A) α-cyclodextrin (100-2,000 mg, right to left), (B) β-cyclodextrin or (C) γ-cyclodextrin. A band of “wax-like” material layered between the oil and aqueous phases is apparent in the tubes. […] Note the increasing size (right to left) of a white layer of un-reacted α-cyclodextrin in the bottom of the tubes. This material is displaced from solution by either the oil or the α-cyclodextrin-oil complex. These tubes were centrifuged in order to improve the definition of the layers. The “wax-like” complex is of such a consistency that all of the tubes except for the furthest two to the right can be inverted without leakage of the aqueous phase around the complex.
FIGS. 9A-9C depict the results of an in vitro study of vegetable oil (4 g), water (6 g) (with added food coloring for contrast) and varying amounts of (A) α-cyclodextrin (100-2,000 mg, right to left), (B) β-cyclodextrin or (C) γ-cyclodextrin. A band of “wax-like” material layered between the oil and aqueous phases is apparent in the tubes. […] Note the increasing size (right to left) of a white layer of un-reacted α-cyclodextrin in the bottom of the tubes. This material is displaced from solution by either the oil or the α-cyclodextrin-oil complex. These tubes were centrifuged in order to improve the definition of the layers. The “wax-like” complex is of such a consistency that all of the tubes in 9A except for the furthest two to the right can be inverted without leakage of the aqueous phase around the complex.
Thus one would not have expected α-cyclodextrin to complex triglyceride molecules because the molecules would not fit within the pore of the α α-cyclodextrin. […] The white substance in the bottom of the tubes is precipitated cyclodextrin.

| SMILES | band of wax-like material (complexed fat) between oil and aqueous phases |
| --- | --- |
| OC[C@H]1O[C@@H]2O[C@H]3[C@H](O)[C@@H](O)[C@@H](O[C@H]4[C@H](O)[C@@H](O)[C@@H](O[C@H]5[C@H](O)[C@@H](O)[C@@H](O[C@H]6[C@H](O)[C@@H](O)[C@@H](O[C@H]7[C@H](O)[C@@H](O)[C@@H](O[C@H]8[C@H](O)[C@@H](O)[C@@H](O[C@H]1[C@H](O)[C@H]2O)O[C@@H]8CO)O[C@@H]7CO)O[C@@H]6CO)O[C@@H]5CO)O[C@@H]4CO)O[C@@H]3CO [β-cyclodextrin] | significantly less |
| OC[C@H]1O[C@@H]2O[C@H]3[C@H](O)[C@@H](O)[C@@H](O[C@H]4[C@H](O)[C@@H](O)[C@@H](O[C@H]5[C@H](O)[C@@H](O)[C@@H](O[C@H]6[C@H](O)[C@@H](O)[C@@H](O[C@H]7[C@H](O)[C@@H](O)[C@@H](O[C@H]8[C@H](O)[C@@H](O)[C@@H](O[C@H]9[C@H](O)[C@@H](O)[C@@H](O[C@H]1[C@H](O)[C@H]2O)O[C@@H]9CO)O[C@@H]8CO)O[C@@H]7CO)O[C@@H]6CO)O[C@@H]5CO)O[C@@H]4CO)O[C@@H]3CO [γ-cyclodextrin] | bearly noticeable |
